Target: T1, TaALMT1 (Triticum aestivum, UniProt Q76LB1)
T1 sequence (Q76LB1 1-459): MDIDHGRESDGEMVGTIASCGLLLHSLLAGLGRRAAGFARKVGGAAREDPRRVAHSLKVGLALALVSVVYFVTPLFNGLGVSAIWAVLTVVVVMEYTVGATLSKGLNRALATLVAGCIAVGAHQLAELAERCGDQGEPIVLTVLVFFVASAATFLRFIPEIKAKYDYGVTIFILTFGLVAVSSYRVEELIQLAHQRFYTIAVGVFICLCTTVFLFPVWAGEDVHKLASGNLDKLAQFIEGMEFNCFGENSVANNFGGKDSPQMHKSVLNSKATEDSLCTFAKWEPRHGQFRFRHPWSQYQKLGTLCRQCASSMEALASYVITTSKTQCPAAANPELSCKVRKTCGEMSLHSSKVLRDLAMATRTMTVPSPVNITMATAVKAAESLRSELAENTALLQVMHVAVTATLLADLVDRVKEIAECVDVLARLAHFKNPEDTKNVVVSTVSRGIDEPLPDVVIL
Assay: TEVC in Xenopus oocytes, malate-activated inward current
Assay type: cell-based
Conditions: read-out: % inhibition at 100 μM

- inhibition at 100 µM: 100%
SMILES: C=CC(N)CCC(=O)O (stereo not shown) [vigabatrin]

From publication doi:10.1101/215335v1 (biorxiv, 2017)
